# Assay results: US20070072815A1, “Methods and kits to increase the efficiency of oligonucleotide-directed nucleic acid sequence alteration” (priority 2004, published 2007)
# “Also recorded” adds a separate entry of the source.
# Assays:
# [1] = system: mutant eGFP gene in DLD-1-1 cells; assay: eGFP gene correction (oligonucleotide-directed sequence alteration) in DLD-1-1 cells, FACS readout; type: cell-based; conditions: for effect on correction when added after electroporation: recovery period, AraC 2-48 hrs, aphidicolin 6 μM at 2, 6 and 24 hrs
# Procedure: Cell line and culture conditions: DLD-1 cells are obtained from ATCC (American Type Cell Culture, Manassas, Va.). DLD-1 integrated clone 1 (DLD-1-1) is obtained by integration of the vector pEGFP-N3 containing a single point mutation (TAG) in the eGFP gene, as described in copending U.S. patent application Ser. No. 10/986,418, filed Nov. 10, 2004 (“Mammalian Cell Lines for Detecting, Monitoring, and Optimizing Oligonucleotide-Mediated Chromosomal Sequence Alteration”). Cells are grown in RPMI 1640 medium with 2 mM glutamine, 4.5 g/L glucose, 10 mM HEPES, 1 mM sodium pyruvate and supplemented with 10% FBS. Cells are maintained at 5% CO2, 37° C. and under selection in 200 μg/ml G418 (Gibco, Invitrogen Co., Carlsbad, Calif.).
# eGFP gene correction: Cells grown in complete medium supplemented with 10% FBS are trypsinized and harvested by centrifugation. The cell pellet is resuspended in serum-free medium at a density of 1×10^6 cells/100 μl and transferred to a 4 mm gap cuvette (Fisher Scientific, Pittsburgh, Pa.). The oligonucleotide is then added at a concentration of 4 μM and the cells are electroporated (LV, 250V, 13 msec, 2 pulses, 1 second interval) using a BTX ECM830 apparatus (BTX, Holliston, Mass.). The cells are then transferred to a 60 mm dish containing fresh medium supplemented with 10% FBS and incubated for 48 hrs at 37° C. before harvesting for FACS analysis.
# The percentage of converted cells in a whole population is then calculated by CellQuest™ (Becton Dickinson) and GFP/PI programs. The correction efficiency is determined by dividing the number of eGFP positive cells by the number of cells analyzed in each experiment (usually 50,000 cells). Each clone is tested three times to determine the standard deviation of the correction efficiency, with standard deviation calculated using Microsoft Excel.
# The experimental strategy involves the introduction of oligonucleotides into DLD-1-clone 1 cells by electroporation followed by phenotypic readout of the corrected eGFP gene, 48 hours later. The correcting oligonucleotide (EGFP3S/72NT) is 72 bases in length (72-mer), complementary to the non-transcribed strand of the mutant eGFP gene but designed to create a single mismatch in the third base of codon 67 (see FIG. 1A). It directs conversion of a TAG→TAC codon which enables phenotypic expression of eGFP, which can be detected by FACS. FIG. 1B outlines the sequence of the target gene, the 72-mer and a nonspecific 74-mer used as a control.
# Oligonucleotide-Directed Sequence Alteration: The resulting synchronized populations of cells, and asynchronous controls, are grown in complete medium supplemented with 10% FBS and trypsinzed and harvested by centrifugation at 1500 rpm for 5 minutes. The cell pellet is resuspended in fresh serum-free medium at a density of 2×10^6 cells/100 μl. The entire cell suspension is mixed with 20 μg of EGFP/72NT and transferred into a 4 mm gap cuvette (Fisher Scientific, Pittsburgh, Pa., USA) followed by electroporation with two 250V pulses, each 13 ms in duration, with one second between pulses, unipolar.
# Cells are incubated at room temperature for 30 min. […] Frequency of converted cells are calculated by CellQuest™ and GFP/PI programs.
# Double Thymidine Block: Cells are synchronized in G1 or at the G1/S border by a double thymidine block. Twenty-four hours prior to the addition of any agent (HU, etc.), cells are plated at a density of 0.5×10^6 cells per 100 mm dish, followed by incubation in 2 mM thymidine (Sigma) for 16 hrs, washed and released in fresh medium for 10 hrs, then incubated in 2 mM thymidine for an additional 15 hrs.
# FACS is then used to analyze 50,000 cells from each population to determine the percentage of cells expressing functional eGFP, as described in Example 1.
# [2] = system: α-galactosidase A (GLA) activity in Fabry's cell line DMN-1; assay: GLA activity in Fabry's cells after ODSA; type: cell-based, human
# Source text: Cell line DMN-1, a human fibroblast cell line derived from a human patient with Fabry's disease, is obtained from the National Institutes of Health (NIH). These cells are used to measure the efficiency of correction of a mutant allele of α-galactosidase A (GLA) using methods of the present invention. The specific disease-causing mutation in the Fabry's cell line used herein is A143P, caused by a G→C mutation in the gene. See Branton et al., Medicine (Baltimore) (2002) 81(2): 122-38.
# All four oligonucleotides are used to effect ODSA substantially as described in Example 1, with the exception that cells are transfected with oligonucleotides, rather than electroporated. Oligos are added at 5 μg, 10 μg or 30 μg per reaction. After ODSA is performed, cells are cultured and assayed for GLA activity according to the method of Brady, as described in Medin et al., Proc. Natl. Acad. Sci. (USA) (1996) 93:7917-22, the disclosure of which is incorporated herein by reference in its entirety. The GLA activity is used as a measure of gene correction by comparing the activities in treated versus untreated cultures. The correction efficiency is subsequently confirmed by sequencing of the locus of mutation in a number of treated cells.
# […] Unlike the experiments involving correction of eGFP in DLD-1-1 cells described in Example 1, however, certain of the agents (VPA, caffeine, TSA) in the experiments in this example are not added before transfection, but are instead added only after transfection, during the recovery period.
# The means of introducing oligonucleotide into the target cells also differs from previous examples, with transfection in the presence of the transfection enhancing agent FuGENE™ 6 (FG) (Roche Diagnostics Corp., Indianapolis, Ind., USA) being used rather than electroporation. Each transfection reaction includes 100 μl of target cells and 12 μl of FG unless otherwise indicated, despite the fact that FG is not explicitly listed for each datapoint in the relevant figures. Otherwise the procedures used in the DLD-1-1 experiments and the Fabry's experiments are similar.
# The results of a further series of experiments are shown at FIG. 15D, where the data are presented as GLA activity as nanomolar (nM) concentration of the product of the GLA assay generated per hour per unit protein concentration (as are the data in FIGS. D and E).
# DLD-1-1 cells [3] = assay: Cell cycle analysis (DNA content by FACS), cells in S phase; type: cell-based
# Procedure: (§1) For cell cycle analysis, 1×10^6 cells are plated 24 hrs before the treatment with drugs and after 24 hrs of treatment, cells are trypsinized, resuspended in 300 μl cold PBS and fixed by adding 700 μl cold ethanol. Cells are then resuspended in 1 ml of PBS containing 500 µg/ml RNaseA and […] propidium iodide and analyzed for DNA content.
# The effect of cell cycle on the efficiency of ODSA is assessed by synchronizing a population of DLD-1-1 cells with mimosine, which arrests cells in early S phase, and serum starvation. Cells are seeded at a density of 0.8×10^6 per 100 mm dish, attached for 20 hours and then cultured in RMPI-1640 medium containing 0.2% fetal bovine serum (FBS). These cells are grown for 48 hours followed by treatment with 0.1 mM mimosine (Sigma, St. Louis, Mo., USA) for 20 hours. Cell are washed twice with PBS and released at various times into fresh medium complemented with 10% FBS before electroporation. Cells are rinsed once with PBS, trypsinized and harvested by centrifugation and resuspended in PBS containing 10 μg/ml propidium iodide, 0.03% Triton-100 and 1 mg/ml RNase. Cells are incubated at room temperature for 1 hour before the measurement of DNA content by FACSCalibur™ flow cytometer. The percentage of cells at various stages of the cell cycle is determined by ModFit L™ software (Verity Software House, Inc., Topsham, Me., USA).
# (§2) The resulting cells are then either analyzed by FACS, or the percentage of cells in S phase is determined by BrdU incorporation. FIG. 8 presents the results of both sets of experiments.
# DLD-1-1 cells [4] = assay: BrdU incorporation (actively replicating forks); type: cell-based; conditions: for BrdU uptake (cells actively incorporating DNA bases): 24 hour treatment, 500 μM ddC, ddI or AraC (FIG. 17B)
# Procedure: as §1, §2
# As stated above, the lack of stimulation observed in cells treated with AraC could be explained by the reduced number of cells passing through S phase or the absence of actively replicating forks. If true, we might predict that a rise in the gene repair frequency would appear if the cells are released from the AraC block and replication forks are allowed to restart prior to the electroporation of the oligonucleotide. We test this prediction by treating the cells with AraC for 24 hrs and then releasing them by washing out the drug at specific times. We measure the level of BrdU incorporation at the time of electroporation and evaluate the frequency of correction 48 hrs later.
# [5] = 24 hour treatment, 500 μM ddC, ddI or AraC (FIG. 17A)
# [6] = serum starvation + mimosine, 8 hours after release
# [7] = 2-5 μM VPA in the recovery phase
compound,measurement,setting,value
"CC[C@@]1(O)C(=O)OCc2c1cc1n(c2=O)Cc2cc3ccccc3nc2-1 [CPT, camptothecin]",effect on correction efficiency,[1]; CPT pretreatment at 30-100 nM,triples correction efficiency
same,GLA activity versus no treatment control,[2]; 7.5 nM CPT during recovery,approximately six-fold
same,GLA activity,"[2]; 7.5 nM CPT during recovery, 49T/gg",26.84 nM product per hour per unit p
same,effect on GLA activity,[2]; CPT 7.5 nM (FIG. 15D summary),more than doubles GLA activity
"Nc1ccn([C@@H]2O[C@H](CO)[C@@H](O)[C@@H]2O)c(=O)n1 [AraC, 1-β-D-arabinofuransylcytosine]",effect on correction levels,"[1]; AraC 5 μM to 250 μM, 24 hrs before electroporation",no enhancement in correction levels; also recorded: significantly insignificant effect
same,time post release at which gene repair activity reaches maximal level,"[1]; AraC 24 hrs, then washed out before electroporation",8 h
same,effect on correction when added after electroporation,[1],correction levels drop substantially
same,cells in S phase,DLD-1-1 cells [3]; [5],26%
same,reduction in S phase cells,DLD-1-1 cells [3]; AraC at 20 μM and 250 μM,9%
same,BrdU uptake (cells actively incorporating DNA bases),DLD-1-1 cells [4],essentially zero
same,time after release at which elevation in BrdU incorporation is observed,"DLD-1-1 cells [4]; AraC 24 hrs, then washed out",≤ 2 h
"CC(/C=C/C(=O)NO)=C\[C@@H](C)C(=O)c1ccc(N(C)C)cc1 [TSA, trichostatin A]",effect on ddC-enhanced GLA activity,"[2]; synchronized cells, 500 μM ddC, 4 mM caffeine or 100 ng/ml TSA during recovery period",eliminate the ability of 500 μM ddC to enhance GLA activity
COc1cc(C=O)ccc1O [vanillin],effect on correction efficiency,"[1]; 1 mM vanillin, before or after electroporation, with or without ddC",no effect on correction efficiency; also recorded: does not inhibit gene repair activity
same,effect on ddC-stimulated gene repair,[1]; inhibitor added with ddC before electroporation (FIG. 20),statistically unchanged
NC(Cn1ccc(=O)c(O)c1)C(=O)O (stereo not drawn) [mimosine],increase of correction efficiency versus asynchronous cells,[1]; [6],2.5 fold
same,cells in S phase,"DLD-1-1 cells [3]; serum starvation + 0.1 mM mimosine, 8 hours after release",86%
same,increase of proportion of cells in S phase versus asynchronous cells,DLD-1-1 cells [3]; [6],2.5 fold
"C[C@@]1(CO)[C@H](O)CC[C@@]2(C)[C@H]1CC[C@H]1C[C@@H]3C[C@@]12CC[C@]3(O)CO [Aphidicolin, aphidicolin]",effect on correction when added after electroporation,[1],low level of correction
"O=c1[nH]cnc2c1ncn2[C@H]1CC[C@@H](CO)O1 [ddI, dideoxyinosine]",effect on gene correction,[1]; various dosages of ddI,no significant increase in gene correction; also recorded: statistically insignificant effect
same,cells in S phase,DLD-1-1 cells [3]; [5],does not show an increase in the number of cells in S phase
same,BrdU uptake (cells actively incorporating DNA bases),DLD-1-1 cells [4],no difference from non-treated cells
"COc1cc([C@@H]2c3cc4c(cc3[C@@H](O[C@@H]3O[C@@H]5CO[C@@H](C)O[C@H]5[C@H](O)[C@H]3O)[C@H]3COC(=O)[C@H]23)OCO4)cc(OC)c1O [VP16, 4′-demethylepipodophyllotoxin-9-(4,6-O-ethylidene-beta-D-glucopyranoside)]",cells in S-phase,"DLD-1-1 cells [3]; 24 hours, 1 mM HU or 3 μM VP16, FACS analysis",56%
same,percentage of cells in S phase by BrdU,"DLD-1-1 cells [4]; 24 hours, 1 mM HU or 3 μM VP16",56%
"CCCC(CCC)C(=O)O [VPA, valproic acid]",GLA activity versus untreated cells,[2]; 5 μM VPA during recovery period,over 20 fold
same,GLA activity,[2]; 5 μM VPA during recovery period after transfection with 49T/gg,98.71 nM product per hour per unit p
same,GLA activity over untreated cells,[2]; [7],25 fold
same,GLA activity versus cells treated identically without VPA,[2]; [7],more than eight-fold
